Values of other authors as cited in patent publication US20240408056A1, “METHODS FOR REPAIRING NERVE DAMAGE USING PKC ACTIVATING THERAPEUTIC AGENTS” (priority 2023, published 2024).
Read-outs that look alike come from different tables or passages of the source.

Target: PKC
[1] = A-ring bryologs, read-out: affinity for PKC

Row | Structure (SMILES) | Ki (Table 1, Bryologs, read-out: PKC Affinity) | affinity for PKC (in words) (compared with Bryostatin-1 and the other bryologs) | Ki [1]
1 | CCCCCCCC(=O)OC1C(=CC(=O)OC)CC2CC(CO)OC(=O)CC(O)CC3CCCC(CC4CCOC(C=CC(C)(C)C1(O)O2)O4)O3 (centres unmarked) [Analog 1] | 0.25 nM | highest affinity for PKC | –
2 | CCCCCCCC(=O)OC1C(=CC(=O)OC)CC2CC(CO)OC(=O)CC(O)CCOC(c3ccccc3)CC3CCOC(C=CC(C)(C)C1(O)O2)O3 (centres unmarked) [bryolog 4] | – | – | 2.3 nM
3 | CCCCCCCC(=O)OC1C(=CC(=O)OC)CC2CC(CO)OC(=O)CC(O)CCOC(CCCc3ccc(Br)cc3)CC3CCOC(C=CC(C)(C)C1(O)O2)O3 (centres unmarked) [bryolog 5] | – | – | 1.9 nM
4 | CCCCCCCC(=O)OC1C(=CC(=O)OC)CC2CC(CO)OC(=O)CC(O)CCOC(C(C)(C)C)CC3CCOC(C=CC(C)(C)C1(O)O2)O3 (centres unmarked) [bryolog 3] | – | – | 6.5 nM
